# Experimental data published in patent publication US20240174596A1 (Northwestern University, priority 2021, published 2024).
# Counter-ions that a name gives are not always drawn.
# Target: T1, hOAT (Homo sapiens, UniProt P04181)
# T1 construct: made in house; host or cells: E. coli BL21(DE3)
# T1 sequence (P04181 26-439): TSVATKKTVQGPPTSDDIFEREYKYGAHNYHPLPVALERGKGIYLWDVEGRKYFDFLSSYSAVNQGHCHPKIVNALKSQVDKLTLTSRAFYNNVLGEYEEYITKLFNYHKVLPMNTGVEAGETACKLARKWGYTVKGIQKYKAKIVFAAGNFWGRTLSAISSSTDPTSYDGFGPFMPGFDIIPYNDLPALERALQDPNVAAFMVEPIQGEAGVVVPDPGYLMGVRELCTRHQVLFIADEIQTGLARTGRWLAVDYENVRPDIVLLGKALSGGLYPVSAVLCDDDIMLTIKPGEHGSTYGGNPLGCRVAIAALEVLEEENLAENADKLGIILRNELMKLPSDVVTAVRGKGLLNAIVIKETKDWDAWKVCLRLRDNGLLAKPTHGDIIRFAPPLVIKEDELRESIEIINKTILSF
# Experiment: Transient state (stopped-flow) measurements of hOAT reacting with SS-1-148
# Type: biochemical
# Conditions: 10° C., pH 7.5
# Method: FIG. 6. Transient state absorption changes observed at 275, 420, and 560 nm for hOAT reacting with SS-1-148. OAT (12.7 μM final) was mixed with SS-1-148 (126, 251, 502, 1004, 2008, 4016 μM), and CCD spectra were collected for the timeframe 0.009-49.2 seconds. (A) The data observed at 420 nm fit to a linear combination of three exponential terms according to equation (3) described in the supporting information. The arrow indicates the trend observed in amplitude for increasing inhibitor concentration. (B) The observed rate constant dependence of the first phase observed at 420 nm fit to equation (5) described in the supporting information. The values for k2 and k3 indicated are the average values obtained from the fit in FIG. 5A. The fit is shown in red dashes. (C) The data observed at 560 nm. The curved arrow indicates the trend observed in amplitude for increasing inhibitor concentration. […] The fit is shown in red dashes. (D) The data observed at 275 nm over 2000 sec obtained in the presence of 8032 μM SS-1-148 fit to a linear combination of two exponential terms according to equation (4) in the supporting information. The fit is shown in red dashes.
# FIG. 7. Partial deconvolution by singular value decomposition (SVD) of transient state absorption changes observed for hOAT reacting with SS-1-148. hOAT (6.94 μM; final concentration) was reacted in a stopped-flow spectrophotometer with SS-1-148 (1040 μM; final concentration) at 10° C. To obtain time resolution sufficient to analyze kinetic rates spanning four orders of magnitude, a composite CCD absorbance dataset was prepared spanning 250-800 nm and 0.0137-9843 sec by splicing together averaged short and long time-frame datasets. […] The species concentration profile based on the rate constants used to fit the dataset (B). A three-dimensional depiction of a subset of spectra from the dataset analyzed (C).
# For each concentration of the inhibitor, CCD spectral datasets were collected in duplicate for 50 sec, and the duplicates were averaged For the highest concentration of inhibitor (8 mM) duplicate CCD datasets were acquired for two timeframes (0.0025-12.4 sec and 0.0025-2480 sec). Duplicate datasets for anyone timeframe were averaged and then spliced together at 12 sec to form one dataset with sufficient time resolution to adequately describe rapid and slow processes. […] In the process, the rate constants were fixed to the values measured using analytical fits to data extracted for single wavelengths that assume successive first-order processes according to the equations (3), (4), and (5). Abs is absorbance, Ax are the amplitudes associated with each observed phase, kx are the corresponding rate constants, and C is the absorbance endpoint.
smiles,measurement,value
"N[C@H]1C=C(C(=O)O)CC1(F)F [SS-1-148, (S)-3-Amino-4,4-difluorocyclopent-1-enecarboxylic acid hydrochloric acid salt]",rate constant of final phase (increase at ~275 nm),0.007 s⁻¹
same,rate dependence of second external aldimine formation (bimolecular reaction),6200 M⁻¹ s⁻¹
same,rate of accumulation of quinonoid species (~560 nm),0.4 s⁻¹
same,rate of quinonoid decay,0.09 s⁻¹
